# Data: ChEMBL document CHEMBL5325505, “Discovery of chiral 1,4-diarylazetidin-2-one-based hydroxamic acid derivatives as novel tubulin polymerization inhibitors with histone deacetylase inhibitory activity” (Bioorg Med Chem, 2023)
# Columns and labels:
# BE(2)-C [1] = experiment: Antiproliferative activity against human BE2C cells incubated for 48 hrs by MTT assay; assay type: functional, cell-based
# U-87 MG = experiment: Antiproliferative activity against human U-87 MG cells incubated for 48 hrs by MTT assay; assay type: functional, cell-based, U-87MG ATCC
# A549 = experiment: Antiproliferative activity against human A549 cells incubated for 48 hrs by MTT assay; assay type: functional, cell-based; details: A549, 48 h
# HCT-116 = experiment: Antiproliferative activity against human HCT-116 cells incubated for 48 hrs by MTT assay; assay type: functional, cell-based; details: HCT-116, 48 h
# Histone deacetylase 1 = Histone deacetylase 1 (Homo sapiens, UniProt Q13547); experiment: Inhibition of HDAC1 (unknown origin)
# Histone deacetylase 8 = target: T1, Histone deacetylase 8 (Homo sapiens, UniProt Q9BY41); experiment: Inhibition of HDAC8 (unknown origin)
# T1 sequence (Q9BY41 whole entry): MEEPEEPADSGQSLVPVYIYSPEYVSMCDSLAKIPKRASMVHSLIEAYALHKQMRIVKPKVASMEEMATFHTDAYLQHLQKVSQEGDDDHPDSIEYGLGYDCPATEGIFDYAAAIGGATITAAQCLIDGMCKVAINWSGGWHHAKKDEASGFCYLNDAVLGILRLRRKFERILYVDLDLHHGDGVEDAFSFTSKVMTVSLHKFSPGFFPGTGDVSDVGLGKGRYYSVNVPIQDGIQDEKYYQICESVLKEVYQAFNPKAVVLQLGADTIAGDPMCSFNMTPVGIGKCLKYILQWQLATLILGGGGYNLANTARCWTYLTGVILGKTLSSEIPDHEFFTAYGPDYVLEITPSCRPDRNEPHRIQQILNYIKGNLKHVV
# [2] = target: T2, Protein deacetylase HDAC6 (Homo sapiens, UniProt Q9UBN7); experiment: Inhibition of HDAC6 (unknown origin)
# T2 sequence (Q9UBN7 whole entry): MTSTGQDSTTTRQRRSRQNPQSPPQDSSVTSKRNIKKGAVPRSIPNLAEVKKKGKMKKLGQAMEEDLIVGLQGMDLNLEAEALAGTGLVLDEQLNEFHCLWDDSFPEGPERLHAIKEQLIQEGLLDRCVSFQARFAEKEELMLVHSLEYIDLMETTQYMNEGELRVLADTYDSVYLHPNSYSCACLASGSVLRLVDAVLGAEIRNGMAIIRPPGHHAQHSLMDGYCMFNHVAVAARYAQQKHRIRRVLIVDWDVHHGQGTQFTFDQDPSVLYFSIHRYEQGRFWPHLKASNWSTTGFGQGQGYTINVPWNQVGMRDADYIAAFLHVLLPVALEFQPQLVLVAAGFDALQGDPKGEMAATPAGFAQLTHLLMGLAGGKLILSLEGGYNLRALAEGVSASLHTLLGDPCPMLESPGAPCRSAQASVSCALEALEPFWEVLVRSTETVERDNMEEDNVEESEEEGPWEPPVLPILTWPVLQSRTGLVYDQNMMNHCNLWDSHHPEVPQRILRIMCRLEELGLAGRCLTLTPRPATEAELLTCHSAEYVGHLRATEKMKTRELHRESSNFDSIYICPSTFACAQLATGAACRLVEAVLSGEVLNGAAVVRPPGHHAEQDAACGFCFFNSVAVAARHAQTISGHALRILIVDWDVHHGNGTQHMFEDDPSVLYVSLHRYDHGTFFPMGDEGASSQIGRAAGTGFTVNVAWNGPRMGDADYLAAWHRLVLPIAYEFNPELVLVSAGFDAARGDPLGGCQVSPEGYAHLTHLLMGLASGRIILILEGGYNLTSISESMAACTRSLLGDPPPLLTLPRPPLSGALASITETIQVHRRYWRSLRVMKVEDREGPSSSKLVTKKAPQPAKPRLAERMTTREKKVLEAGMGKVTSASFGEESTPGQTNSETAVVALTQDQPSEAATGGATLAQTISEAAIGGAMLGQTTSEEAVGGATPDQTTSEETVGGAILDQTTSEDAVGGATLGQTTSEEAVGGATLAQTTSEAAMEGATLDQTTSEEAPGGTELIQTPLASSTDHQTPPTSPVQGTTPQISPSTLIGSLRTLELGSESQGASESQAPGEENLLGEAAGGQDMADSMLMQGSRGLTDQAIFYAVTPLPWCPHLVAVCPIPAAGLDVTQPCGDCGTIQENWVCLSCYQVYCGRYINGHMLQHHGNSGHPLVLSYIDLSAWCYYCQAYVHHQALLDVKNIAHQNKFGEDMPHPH
# BE(2)-C [3] = experiment: Antitumor activity against human BE2C cells xenografted in nude mouse assessed as tumor growth inhibition at 5 mg/kg, ip treated for every 3 days relative to control; assay type: functional; details: 72 h, time 3 day, read-out: TGI
# Tubulin = Tubulin (Sus scrofa, UniProt P02554+P02550); experiment: Inhibition of tubulin polymerization of pig brain by absorbance based assay
# [4] = Aqueous solubility of compound at 1 mg incubated for 10 mins; assay type: physicochemical
# [5] = Metabolic stability in human liver microsomes assessed as half life; assay type: ADME, Microsome
# [6] = Metabolic stability in human liver microsomes assessed as compound remaining incubated for 30 mins; assay type: ADME, Microsome; details: microsomes, 0.5 h
# [7] = Metabolic stability in human liver microsomes assessed as compound remaining incubated for 5 mins; assay type: ADME, Microsome; details: read-out: Stability
# [8] = Metabolic stability in human liver microsomes assessed as compound remaining incubated for 10 mins; assay type: ADME, Microsome; details: read-out: Stability
# [9] = Metabolic stability in human liver microsomes assessed as compound remaining incubated for 20 mins; assay type: ADME, Microsome; details: liver microsomes, read-out: Stability
# [10] = Metabolic stability in human liver microsomes assessed as compound remaining incubated for 60 mins; assay type: ADME, Microsome; details: microsomes, 1 h
# [11] = Metabolic stability in human liver microsomes assessed as intrinsic clearance; assay type: ADME, Microsome; details: read-out: CLH
# Histone deacetylase 1, sequence (Q13547 whole entry): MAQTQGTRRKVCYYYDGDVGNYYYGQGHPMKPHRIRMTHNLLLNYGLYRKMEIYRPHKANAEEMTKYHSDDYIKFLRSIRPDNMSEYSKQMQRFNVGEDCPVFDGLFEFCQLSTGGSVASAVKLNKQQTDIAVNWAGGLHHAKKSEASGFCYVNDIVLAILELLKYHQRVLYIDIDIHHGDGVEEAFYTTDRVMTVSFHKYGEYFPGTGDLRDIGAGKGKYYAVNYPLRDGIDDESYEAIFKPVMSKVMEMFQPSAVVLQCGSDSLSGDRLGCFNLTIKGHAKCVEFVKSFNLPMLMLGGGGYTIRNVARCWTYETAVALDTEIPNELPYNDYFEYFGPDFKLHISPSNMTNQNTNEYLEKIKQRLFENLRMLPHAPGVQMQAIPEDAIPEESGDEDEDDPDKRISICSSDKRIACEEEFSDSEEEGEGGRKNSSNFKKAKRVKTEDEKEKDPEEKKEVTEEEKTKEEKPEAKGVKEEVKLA
IC50 (U-87 MG),IC50 (A549),IC50 (HCT-116),SMILES,IC50 (BE(2)-C [1]),further results
> 10 µM,> 10 µM,> 10 µM,COc1ccc([C@H]2[C@H](COC(=O)CCCC(=O)NO)C(=O)N2c2cc(OC)c(OC)c(OC)c2)cc1O,> 10 µM,–
> 10 µM,0.016 µM,> 10 µM,COc1ccc([C@H]2[C@H](COC(=O)CCC(=O)NO)C(=O)N2c2cc(OC)c(OC)c(OC)c2)cc1O,0.043 µM,IC50 (Histone deacetylase 1): 0.301 µM; IC50 (Histone deacetylase 8): 0.288 µM; IC50 [2]: 2.41 µM
> 10 µM,0.479 µM,0.5 µM,COc1ccc([C@H]2[C@H](CNC(=O)c3ccc(C(=O)NO)cc3)C(=O)N2c2cc(OC)c(OC)c(OC)c2)cc1O,0.303 µM,–
> 10 µM,2.34 µM,> 10 µM,COc1ccc([C@H]2[C@H](C)C(=O)N2c2cc(OC)c(OC)c(OC)c2)cc1OCCCCC(=O)NO,3.97 µM,–
0.072 µM,0.084 µM,0.06 µM,C=C1C(=O)N(c2cc(OC)c(OC)c(OC)c2)[C@H]1c1ccc(OC)c(/C=C/C(=O)NO)c1,0.035 µM,–
0.023 µM,0.173 µM,0.304 µM,COc1ccc([C@H]2[C@@H](C)C(=O)N2c2cc(OC)c(OC)c(OC)c2)cc1/C=C/C(=O)NO,0.317 µM,–
–,–,–,CC(=O)O[C@H]1C(=O)[C@@]2(C)[C@H]([C@H](OC(=O)c3ccccc3)[C@]3(O)C[C@H](OC(=O)[C@H](O)[C@@H](NC(=O)c4ccccc4)c4ccccc4)C(C)=C1C3(C)C)[C@]1(OC(C)=O)CO[C@@H]1C[C@@H]2O [PACLITAXEL],–,inhibition in vivo at 5 mg/kg (BE(2)-C [3]): 44%
4.4 µM,3.65 µM,> 10 µM,COc1ccc([C@H]2[C@H](C)C(=O)N2c2cc(OC)c(OC)c(OC)c2)cc1OCCCC(=O)NO,1.81 µM,–
> 10 µM,7.82 µM,0.464 µM,COc1ccc([C@H]2[C@H](C)C(=O)N2c2cc(OC)c(OC)c(OC)c2)cc1OCCCCCC(=O)NO,7.69 µM,–
0.432 µM,0.326 µM,0.397 µM,COc1ccc([C@H]2[C@H](COC(=O)c3ccc(C(=O)O)cc3)C(=O)N2c2cc(OC)c(OC)c(OC)c2)cc1O,0.776 µM,–
> 10 µM,> 10 µM,> 10 µM,COc1ccc([C@H]2[C@H](CNC(=O)CCCC(=O)NO)C(=O)N2c2cc(OC)c(OC)c(OC)c2)cc1O,> 10 µM,–
–,–,–,COc1ccc(/C=C\c2cc(OC)c(OC)c(OC)c2)cc1O [COMBRETASTATIN A4],–,solubility at 10 min [4]: 0.00104 mg/mL
0.056 µM,0.054 µM,0.082 µM,COc1ccc([C@H]2[C@H](C)C(=O)N2c2cc(OC)c(OC)c(OC)c2)cc1OCC(=O)NO,0.03 µM,–
2.15 µM,1.26 µM,0.62 µM,C=C1C(=O)N(c2cc(OC)c(OC)c(OC)c2)[C@H]1c1ccc(OC)c(/C=C/CC(=O)NO)c1,0.045 µM,–
–,–,–,O=C(CCCCCCC(=O)Nc1ccccc1)NO [VORINOSTAT],2.11 µM,t1/2 [5]: 2.42 h; Stability [6]: 105.7%; solubility at 10 min [4]: 0.0917 mg/mL; remaining at 5 min [7]: 96.4%; remaining at 10 min [8]: 98.4%; remaining at 20 min [9]: 99%; Stability [10]: 92.8%; CLint scaled [11]: < 0.516 L/h/kg
> 10 µM,> 10 µM,> 10 µM,COc1ccc([C@H]2[C@H](CNC(=O)CCC(=O)NO)C(=O)N2c2cc(OC)c(OC)c(OC)c2)cc1O,> 10 µM,–

SMILES,IC50 (U-87 MG),IC50 (A549),IC50 (HCT-116),IC50 (BE(2)-C [1]),further results
C=C1C(=O)N(c2cc(OC)c(OC)c(OC)c2)[C@H]1c1ccc(OC)c(O)c1,0.143 µM,0.128 µM,0.234 µM,0.186 µM,IC50 (Tubulin): 6.6 µM
